In ChEMBL document CHEMBL5550215, “Discovery of Novel Imidazo[1,2-a]pyridine-Based HDAC6 Inhibitors as an Anticarcinogen with a Cardioprotective Effect” (J Med Chem, 2024):
Activity calls are given as the source filed them. The rule behind the calls is not given here.

Assays:
Histone deacetylase 1 [1] = molecular target: T1, Histone deacetylase 1 (Homo sapiens, UniProt Q13547); experiment: Inhibition of HDAC1 (unknown origin)
H9c2 [2] = experiment: Cardioprotective activity in H2O2 induced myocardial injury in rat H9c2 cells assessed as effect on P62 level at upto 8 uM by q-PCR analysis; format: functional, cell-based
H9c2 [3] = experiment: Cardioprotective activity in H2O2 induced myocardial injury in rat H9c2 cells assessed as downregulation of IL-18 expression; format: functional, cell-based; settings: dose <= 8.0 µM
BGC-823 = experiment: Antiproliferative activity against human BGC-823 cells assessed as inhibition of cell growth by MTT assay
MGC-803 [4] = experiment: Induction of apoptosis in human MGC-803 cells assessed as early apoptotic cells at 2 uM measured after 48 hrs by Annexin V-EGFP and PI staining based flow cytometry analysis (reference value: 0.66%); format: functional
MGC-803 [5] = experiment: Induction of apoptosis in human MGC-803 cells assessed as necrotic cells at 1 uM measured after 48 hrs by Annexin V-EGFP and PI staining based flow cytometry analysis (reference value: 3.90%); format: functional
H9c2 [6] = experiment: Cardioprotective activity in H2O2 induced myocardial injury in rat H9c2 cells assessed as downregulation of IL-18 mRNA level at upto 8 uM by q-PCR analysis; format: functional, cell-based
MGC-803 [7] = experiment: Induction of apoptosis in human MGC-803 cells assessed as necrotic cells at 2 uM measured after 48 hrs by Annexin V-EGFP and PI staining based flow cytometry analysis (reference value: 3.90%); format: functional
NCI-H460 = experiment: Antiproliferative activity against human NCI-H460 cells assessed as inhibition of cell growth by MTT assay
Histone deacetylase 1 [8] = molecular target: T1, Histone deacetylase 1; experiment: Induction of thermal stabilization of HDAC1 in human MGC-803 cells at 48 degree C st 20 uM incubated for 4 hrs by CETSA; format: cell-based
Mus musculus [9] = experiment: Cardioprotective activity against myocardial ischemia/reperfusion induced C57BL/6J mouse model assessed as reduction in myocardial infarction area at 10 mg/kg (reference value: 72.19%); format: functional; set-up: scale not given: the % may be the effect or the level left
PANC-1 = experiment: Antiproliferative activity against human PANC-1 cells assessed as inhibition of cell growth by MTT assay
[10] = Observed clearance in male Sprague-Dawley rat at 7 mg/kg,iv measured upto 8 hrs by UPLC-MS/MS analysis; format: ADME, organism-based; settings: in vivo
Mus musculus [11] = experiment: Cardioprotective activity against myocardial ischemia/reperfusion induced C57BL/6J mouse model assessed as alleviation of extensive myocardial necrosis at 10 mg/kg by H and E staining based analysis; format: functional, organism-based
[12] = Half life in male Sprague-Dawley rat at 7 mg/kg,iv measured upto 8 hrs by UPLC-MS/MS analysis; format: ADME, organism-based; settings: in vivo
MGC-803 [13] = experiment: Antitumor activity against human MGC-803 cells xenografted in […] mouse model assessed as suppression of tumor mass at 25 to 50 mg/kg, ip measured upto 21 days with continuous administration for 5 days followed by two days break; format: functional, organism-based; settings: dose 25-50 mg/kg, time <= 21.0 day
MGC-803 [14] = experiment: Induction of apoptosis in human MGC-803 cells assessed as viable cells at 1 uM measured after 48 hrs by Annexin V-EGFP and PI staining based flow cytometry analysis (reference value: 92.3%); format: functional; settings: read-out: Activity
H9c2 [15] = experiment: Cardioprotective activity in H2O2 induced myocardial injury in rat H9c2 cells assessed as effect on SOD level at upto 8 uM by q-PCR analysis; format: functional, cell-based
Mus musculus [16] = experiment: Cardioprotective activity against myocardial ischemia/reperfusion induced C57BL/6J mouse model assessed as reduction in myocardial infarction area at 2.5 mg/kg (reference value: 72.19%); format: functional; set-up: scale not given: the % may be the effect or the level left
H9c2 [17] = experiment: Cardioprotective activity against H2O2 induced myocardial damage in rat H9c2 cells harbouring Ad.HDAC6 assessed as reversal of IL-18 expression at 8 uM; format: functional, cell-based
Mus musculus [18] = experiment: Cardioprotective activity against myocardial ischemia/reperfusion induced C57BL/6J mouse model assessed as alleviation of leukocyte infiltration at 10 mg/kg by H and E staining based analysis; format: functional, organism-based
[19] = molecular target: T2, Protein deacetylase HDAC6 (Mus musculus) (UniProt Q9Z2V5); experiment: In vivo inhibition of HDAC6 in C57BL/6 mouse xenografted with MGC-803 cells assessed as effect on acetylated tubulin level at 25 to 50 mg/kg, ip by Western blot analysis; format: functional, organism-based; settings: dose 25-50 mg/kg
T2 sequence (whole entry): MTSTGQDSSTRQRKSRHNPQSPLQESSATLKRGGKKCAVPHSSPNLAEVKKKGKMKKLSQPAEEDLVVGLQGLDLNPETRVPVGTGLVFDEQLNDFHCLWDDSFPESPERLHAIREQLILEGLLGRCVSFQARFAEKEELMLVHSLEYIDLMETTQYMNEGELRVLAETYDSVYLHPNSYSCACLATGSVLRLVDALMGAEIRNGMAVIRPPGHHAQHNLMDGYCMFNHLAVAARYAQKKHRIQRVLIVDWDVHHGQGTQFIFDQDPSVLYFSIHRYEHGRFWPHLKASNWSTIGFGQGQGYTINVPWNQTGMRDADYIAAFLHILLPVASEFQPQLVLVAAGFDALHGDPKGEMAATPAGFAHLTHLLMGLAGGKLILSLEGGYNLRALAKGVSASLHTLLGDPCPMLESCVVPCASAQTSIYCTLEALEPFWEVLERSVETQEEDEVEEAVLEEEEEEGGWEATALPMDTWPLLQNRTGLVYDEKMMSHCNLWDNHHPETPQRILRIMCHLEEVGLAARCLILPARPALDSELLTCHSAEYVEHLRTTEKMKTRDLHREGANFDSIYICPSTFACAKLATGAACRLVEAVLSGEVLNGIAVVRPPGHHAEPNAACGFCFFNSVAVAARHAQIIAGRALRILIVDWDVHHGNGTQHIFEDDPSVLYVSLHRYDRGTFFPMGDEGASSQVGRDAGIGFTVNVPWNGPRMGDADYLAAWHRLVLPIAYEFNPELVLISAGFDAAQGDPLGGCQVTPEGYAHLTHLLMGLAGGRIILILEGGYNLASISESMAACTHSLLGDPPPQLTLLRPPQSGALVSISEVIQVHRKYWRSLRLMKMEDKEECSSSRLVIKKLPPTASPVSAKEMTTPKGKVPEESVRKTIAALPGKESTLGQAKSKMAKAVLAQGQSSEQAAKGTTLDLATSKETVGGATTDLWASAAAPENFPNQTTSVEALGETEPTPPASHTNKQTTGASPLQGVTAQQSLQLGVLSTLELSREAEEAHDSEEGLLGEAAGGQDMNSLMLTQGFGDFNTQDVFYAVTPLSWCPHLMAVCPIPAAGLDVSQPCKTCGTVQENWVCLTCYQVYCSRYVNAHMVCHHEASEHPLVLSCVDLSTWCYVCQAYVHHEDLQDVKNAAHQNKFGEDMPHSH

H9c2 [20] = experiment: Cardioprotective activity in H2O2 induced myocardial injury in rat H9c2 cells assessed as downregulation of IL-1 beta mRNA level at upto 8 uM by q-PCR analysis; format: functional, cell-based
MGC-803 [21] = experiment: Induction of apoptosis in human MGC-803 cells assessed as late apoptotic cells at 1 uM measured after 48 hrs by Annexin V-EGFP and PI staining based flow cytometry analysis (reference value: 3.16%); format: functional

T1 sequence (Q13547 whole entry): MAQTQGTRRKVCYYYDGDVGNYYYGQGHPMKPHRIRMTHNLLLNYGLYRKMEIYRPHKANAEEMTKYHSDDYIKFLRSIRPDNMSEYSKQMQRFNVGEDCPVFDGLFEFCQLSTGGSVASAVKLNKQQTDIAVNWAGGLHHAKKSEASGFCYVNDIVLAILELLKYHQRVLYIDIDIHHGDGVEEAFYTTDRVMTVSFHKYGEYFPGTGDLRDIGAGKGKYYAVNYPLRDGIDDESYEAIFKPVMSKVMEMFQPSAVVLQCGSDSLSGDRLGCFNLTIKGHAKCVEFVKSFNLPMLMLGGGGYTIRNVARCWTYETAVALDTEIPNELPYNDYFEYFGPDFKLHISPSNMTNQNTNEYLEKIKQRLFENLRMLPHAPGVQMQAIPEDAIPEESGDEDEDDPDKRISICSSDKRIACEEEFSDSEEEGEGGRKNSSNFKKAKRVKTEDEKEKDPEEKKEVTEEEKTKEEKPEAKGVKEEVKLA

Structure (SMILES): O=C(NO)c1ccc(CNC(=O)c2cc(-c3ccc(F)cc3)cn3ccnc23)cc1
- IC50 (Histone deacetylase 1 [1]): 0.0031 µM
- Activity (H9c2 [2]): inactive
- Activity (H9c2 [3]): Dose-Dependent Effect
- IC50 (BGC-823): 2.25 µM
- Activity (MGC-803 [4]): 0.7%
- Activity (MGC-803 [5]): 4.7%
- Activity (H9c2 [6]): Active
- Activity (MGC-803 [7]): 4.83%
- IC50 (NCI-H460): > 10 µM
- Activity (Histone deacetylase 1 [8]): inactive
- Activity (Mus musculus [9]): 37.64%
- IC50 (PANC-1): 3.79 µM
- clearance [10]: 134 mL/min/kg
- Activity (Mus musculus [11]): Active
- half-life [12]: 2.19 h
- Activity (MGC-803 [13]): Active
- viability at 1 µM (MGC-803 [14]): 77.2%
- Activity (H9c2 [15]): inactive
- Activity (Mus musculus [16]): 59.66%
- Activity (H9c2 [17]): Active
- Activity (Mus musculus [18]): Active
- inhibition [19]: Active
- Activity (H9c2 [20]): Active
- Activity (MGC-803 [21]): 17.6%
